From article PMC6509195 (mBio, 2019)
One block for each molecule: values may come before it.

Experiments:
CsiD (PP_2909) [1] = biological target: T1, CsiD (PP_2909) (Pseudomonas putida, UniProt Q88IU0); assay: LC-TOF detection of L-2HG; assay type: biochemical; conditions: 2-oxoacid co-substrate in place of 2KG; glutarate, FeSO4, HEPES pH 7, 22°C
T1 construct: gene glaH
T1 sequence (Q88IU0 1-325): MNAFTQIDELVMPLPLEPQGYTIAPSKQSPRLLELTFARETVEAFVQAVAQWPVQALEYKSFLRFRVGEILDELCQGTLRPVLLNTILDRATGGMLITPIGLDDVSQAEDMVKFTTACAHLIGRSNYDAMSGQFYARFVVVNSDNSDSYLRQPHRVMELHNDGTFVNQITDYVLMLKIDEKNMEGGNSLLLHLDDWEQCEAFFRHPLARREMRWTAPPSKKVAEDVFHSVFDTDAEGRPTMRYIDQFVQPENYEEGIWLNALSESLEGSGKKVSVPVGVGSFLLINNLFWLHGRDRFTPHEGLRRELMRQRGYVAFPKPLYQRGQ

[2] = biological target: T2, CsiD homolog from E. coli (Escherichia coli, UniProt P76621); assay: LC-TOF detection of L-2HG; assay type: biochemical; conditions: 2-oxoacid co-substrate in place of 2KG; glutarate, FeSO4, HEPES pH 7, 22°C
T2 construct: gene glaH
T2 sequence (P76621 1-325): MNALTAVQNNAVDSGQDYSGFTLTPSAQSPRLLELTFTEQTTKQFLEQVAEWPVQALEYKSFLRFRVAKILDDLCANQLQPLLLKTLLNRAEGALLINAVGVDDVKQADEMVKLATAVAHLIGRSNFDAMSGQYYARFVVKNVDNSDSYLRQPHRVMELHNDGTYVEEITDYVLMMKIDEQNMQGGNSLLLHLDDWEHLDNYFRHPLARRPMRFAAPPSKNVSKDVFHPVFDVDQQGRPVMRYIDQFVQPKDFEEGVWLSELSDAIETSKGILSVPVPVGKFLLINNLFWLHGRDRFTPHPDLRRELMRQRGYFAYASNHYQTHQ

PP_4108 = biological target: T3, PP_4108 (Pseudomonas putida, UniProt Q88FI7); assay: colorimetric glutamate assay of transamination; assay type: biochemical; conditions: 2KG as amino acceptor, PLP, 50 mM HEPES pH 7.5, 30°C, 16 h
T3 sequence (Q88FI7 1-416): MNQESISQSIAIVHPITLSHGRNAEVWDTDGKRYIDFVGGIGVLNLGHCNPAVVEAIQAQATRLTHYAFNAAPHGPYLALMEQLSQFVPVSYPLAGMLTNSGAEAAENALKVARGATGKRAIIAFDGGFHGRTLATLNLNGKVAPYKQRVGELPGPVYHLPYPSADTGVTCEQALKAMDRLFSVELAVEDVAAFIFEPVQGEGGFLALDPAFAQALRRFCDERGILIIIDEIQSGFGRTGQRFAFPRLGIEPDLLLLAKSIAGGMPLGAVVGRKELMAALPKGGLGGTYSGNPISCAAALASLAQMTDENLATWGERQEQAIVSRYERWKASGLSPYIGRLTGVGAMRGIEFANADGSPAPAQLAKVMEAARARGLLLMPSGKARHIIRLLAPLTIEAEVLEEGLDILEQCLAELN

[3] = biological target: T2, CsiD homolog from E. coli; assay: LC-TOF product analysis; assay type: biochemical; conditions: 2KG co-substrate, FeSO4, HEPES pH 7, 22°C
CsiD (PP_2909) [4] = biological target: T1, CsiD (PP_2909); assay: LC-TOF / HPLC product analysis; assay type: biochemical; conditions: 2KG co-substrate, 25 μM FeSO4, ascorbate, DTT, 50 mM HEPES pH 7, 22°C, 3 h
purified protein = substrate: O=C(O)CCCC(=O)C(=O)O; assay: purified protein; assay type: biochemical, Pseudomonas putida; conditions: 100 mM Tris-HCl pH 7, 10 mM MgCl2, 50 μM FeCl2, Fe(II)-dependent

Molecule: O=C(O)CCCC(=O)C(=O)O [2-oxoadipate]
LC-TOF detection of L-2HG (CsiD (PP_2909) [1]): all three CsiD homologs could utilize both 2OA and 2KG, but not oxaloacetate
LC-TOF detection of L-2HG [2]: all three CsiD homologs could utilize both 2OA and 2KG, but not oxaloacetate

relative activity (PP_4108): The enzyme was most active on L-2AA
Molecule: N[C@@H](CCCC(=O)O)C(=O)O [L-2-aminoadipate]

Molecule: O=C(O)CCCC(=O)O [glutarate]
LC-TOF product analysis [3]: found that only glutarate served as a hydroxylation substrate
LC-TOF / HPLC product analysis (CsiD (PP_2909) [4]): purified csiD and confirmed that it hydroxylated glutarate in a 2KG-dependent manner

B1: PP_5260 (Pseudomonas putida KT2440) (protein)
chain: MPANDFVSPDSIRAQFSAAMSLMYKQEVPLYGTLLELVSEINQQVMAQQPEVAEALRWTGEIERLDQERHGAIRVGTAEELATIARLFAVMGMQPVGYYDLSSAGVPVHSTAFRAVHEQSLHVSPFRVFTSLLRLELIDNPQLRELAQSILAKRQIFTSRALELIAQCEREGGLDAADAETFVQEALHTFRWHQDATVTAEQYQQLHDQHRLIADVVAFKGPHINHLTPRTLDIDAIQLGMPAKGIPPKAVVEGPPTRRHPILLRQTSFKALQETVAFRDQQGREGSHTARFGEIEQRGAALTPKGRQLYDKLLDATRVALGGAPAEANAERYMALLQANFAEFPDDLAQMREQGLAYFRYFATEKGLAARDQEGRPTTLQGLIDAGHVHFEALVYEDFLPVSAAGIFQSNLGDDAQAEYGSNANREAFEAALGLQVQDELALYAQSERRSLQACAQALNLGSM
Km (purified protein): 0.06 (± 0.03) mM
